Reference: patent EP3262942A1, “SELENODIARYLS FOR USE AS MICROBICIDE OR AS MEDICINE” (Evonik Degussa GmbH, priority 2016, dated 2018)

What was measured:
M. grisea H2O = test: microbe, parasite or virus in culture; format: cell-based, Magnaporthe grisea; conditions: Pyricularia grisea, H2O, 24 h, read-out: Aktivität gegenüber M. grisea H2O
Candida albicans = test: Growth test in microtiter plates, HA medium, 24 h, visual evaluation; format: cell-based; parameters: key: +: kein Wachstum im Vergleich zur Wachstumskontrolle; -: Wachstum wie Wachstumskontrolle
Penicillium notatum = test: as above; format: cell-based; parameters: key: +: kein Wachstum im Vergleich zur Wachstumskontrolle; -: Wachstum wie Wachstumskontrolle
P. infestans = test: microbe, parasite or virus in culture; format: cell-based, Phytophthora infestans; conditions: Phytophthora infestans, 24 h, read-out: Aktivität gegenüber P. infestans
Lepidium sativum = test: Crop plant growth test, seeds on filter discs, 4 days, visual evaluation; format: in vivo
Procedure, shortened: (§1)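 Compounds dried from DMSO onto filter discs; about 12 seeds per well with 200 µl sterile tap water, incubated 4 days in a humid chamber under 16 h light/8 h dark. Visual scoring: + means at least 75 % growth inhibition versus control, − means less than 75 %.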

Setaria italica = test: as above; format: in vivo
Procedure, shortened: as §1

M. grisea = format: cell-based, Magnaporthe grisea; conditions: medium (H2O or CM) not stated
M. grisea CM = test: microbe, parasite or virus in culture; format: cell-based, Magnaporthe grisea; conditions: Pyricularia grisea, 24 h, read-out: Aktivität gegenüber M. grisea CM
Mucor miehei = test: Growth test in microtiter plates, HA medium, 24 h, visual evaluation; format: cell-based; parameters: key to Aktivität gegenüber M. miehei: +: kein Wachstum im Vergleich zur Wachstumskontrolle; -: Wachstum wie Wachstumskontrolle
Paecilomyces variotii = test: as above; format: cell-based; parameters: key: +: kein Wachstum im Vergleich zur Wachstumskontrolle; -: Wachstum wie Wachstumskontrolle
Botrytis cinerea = test: microbe, parasite or virus in culture; format: cell-based; conditions: Botrytis cinerea, 24 h, read-out: Aktivität gegenüber B. cinerea

| Structure (SMILES) | inhibition of growth at 5 µg/mL (M. grisea H2O) | inhibition of growth at 10 µg/mL (M. grisea H2O) | inhibition of growth at 25 µg/mL (M. grisea H2O) | inhibition of growth at 50 µg/mL (M. grisea H2O) | Aktivität gegenüber C. albicans (Candida albicans; 10µg/mL) | Aktivität gegenüber C. albicans (Candida albicans; 50µg/mL) | Aktivität gegenüber P. notatum (Penicillium notatum; 10µg/mL) | Aktivität gegenüber P. notatum (Penicillium notatum; 50µg/mL) | inhibition of growth at 5 µg/mL (P. infestans) | inhibition of growth at 10 µg/mL (P. infestans) | inhibition of growth at 25 µg/mL (P. infestans) | inhibition of growth at 50 µg/mL (P. infestans) | Aktivität gegenüber Nutzpflanzen: L. sativum (Lepidium sativum; 10µg/R) | Aktivität gegenüber Nutzpflanzen: L. sativum (Lepidium sativum; 20µg/R) | Aktivität gegenüber Nutzpflanzen: L. sativum (Lepidium sativum; 50µg/R) | Aktivität gegenüber Nutzpflanzen: S. italica (Setaria italica; 10µg/R) | Aktivität gegenüber Nutzpflanzen: S. italica (Setaria italica; 20µg/R) | Aktivität gegenüber Nutzpflanzen: S. italica (Setaria italica; 50µg/R) | Aktivität gegenüber M. grisea (M. grisea) | inhibition of growth at 5 µg/mL (M. grisea CM) | other results |
| --- | --- | --- | --- | --- | --- | --- | --- | --- | --- | --- | --- | --- | --- | --- | --- | --- | --- | --- | --- | --- | --- |
| Cc1cc(C)c(O)c([Se]c2cc(C)cc(C)c2O)c1 [Verbindung 12, Bis(3,5-dimethyl-2-hydroxyphenyl)selen] | 0 to 25% | 0 to 25% | 0 to 25% | 0 to 25% | - | - | - | - | 0 to 25% | > 75% | > 75% | > 75% | - (weniger als 75 % Wachstumshemmung im Vergleich zur Kontrolle) | - (weniger als 75 % Wachstumshemmung im Vergleich zur Kontrolle) | - (weniger als 75 % Wachstumshemmung im Vergleich zur Kontrolle) | - (weniger als 75 % Wachstumshemmung im Vergleich zur Kontrolle) | - (weniger als 75 % Wachstumshemmung im Vergleich zur Kontrolle) | - (weniger als 75 % Wachstumshemmung im Vergleich zur Kontrolle) | hohe Aktivität | > 75% | inhibition of growth at 10 µg/mL (M. grisea CM): > 75%; inhibition of growth at 25 µg/mL (M. grisea CM): > 75%; inhibition of growth at 50 µg/mL (M. grisea CM): > 75%; Aktivität gegenüber M. miehei (Mucor miehei; 10µg/mL): -; Aktivität gegenüber M. miehei (Mucor miehei; 50µg/mL): -; Aktivität gegenüber P. variotii (Paecilomyces variotii; 10µg/mL): -; Aktivität gegenüber P. variotii (Paecilomyces variotii; 50µg/mL): -; inhibition of growth at 5 µg/mL (Botrytis cinerea): 0 to 25%; inhibition of growth at 10 µg/mL (Botrytis cinerea): 0 to 25%; inhibition of growth at 25 µg/mL (Botrytis cinerea): 0 to 25%; inhibition of growth at 50 µg/mL (Botrytis cinerea): 0 to 25% |
| Cc1cc(C(C)(C)C)cc([Se]c2cc(C(C)(C)C)cc(C)c2O)c1O [Verbindung 13, Di(5-tert-butyl-2-hydroxy-3-methylphenyl)selen] | > 75% | > 75% | > 75% | > 75% | - | - | - | - | 0 to 25% | 0 to 25% | 0 to 25% | 0 to 25% | - (weniger als 75 % Wachstumshemmung im Vergleich zur Kontrolle) | - (weniger als 75 % Wachstumshemmung im Vergleich zur Kontrolle) | - (weniger als 75 % Wachstumshemmung im Vergleich zur Kontrolle) | - (weniger als 75 % Wachstumshemmung im Vergleich zur Kontrolle) | - (weniger als 75 % Wachstumshemmung im Vergleich zur Kontrolle) | - (weniger als 75 % Wachstumshemmung im Vergleich zur Kontrolle) | hohe Aktivität | > 75% | inhibition of growth at 10 µg/mL (M. grisea CM): > 75%; inhibition of growth at 25 µg/mL (M. grisea CM): > 75%; inhibition of growth at 50 µg/mL (M. grisea CM): > 75%; Aktivität gegenüber M. miehei (Mucor miehei; 10µg/mL): -; Aktivität gegenüber M. miehei (Mucor miehei; 50µg/mL): -; Aktivität gegenüber P. variotii (Paecilomyces variotii; 10µg/mL): -; Aktivität gegenüber P. variotii (Paecilomyces variotii; 50µg/mL): -; inhibition of growth at 5 µg/mL (Botrytis cinerea): 0 to 25%; inhibition of growth at 10 µg/mL (Botrytis cinerea): 0 to 25%; inhibition of growth at 25 µg/mL (Botrytis cinerea): 0 to 25%; inhibition of growth at 50 µg/mL (Botrytis cinerea): 0 to 25% |
